According to US20160067247A1, “NOVEL USE” (GlaxoSmithKline Intellectual Property (No.2) Limited, priority 2012, published 2016):
Where two headings read alike, the source gives them in different places.

How the values were obtained:
AKT phosphorylation = AKT phosphorylation in cells (macrophages) isolated from IPF BALF, MSD assay (Example 1); format: cell-based; details: Homo sapiens, Macrophage, 25 min; macrophages isolated from n=3 IPF BALFs; 25 minutes incubation; geometric mean (95% CI 0.28-1.08 nM); read-out: IC50 for inhibition of AKT phosphorylation
Excerpt: Phosphorylation of AKT is widely accepted as an indication of PI3-kinase activity, and is utilised here to obtain an IC50 for the effect of 2,4-difluoro-N-{2-(methyloxy)-5-[4-(4-pyridazinyl)-6-quinolinyl]-3-pyridinyl}benzenesulfonamide on primary human lung fibroblasts isolated from the IPF patients, in addition to macrophages isolated from IPF bronchoalveolar lavage (BALF).
In similar experiments, inhibition of AKT phosphorylation by 2,4-difluoro-N-{2-(methyloxy)-5-[4-(4-pyridazinyl)-6-quinolinyl]-3 pyridinyl}benzenesulfonamide is assessed in cells isolated from IPF BALF. Briefly, BAL cells are resuspended in 0.1% BSA RPMI media to a cell provide a cell count of 5.7×10^4-8.3×10^4 cells per well. BAL cells are added to a 96 well plate and incubated with a range of 2,4-difluoro-N-{2-(methyloxy)-5-[4-(4-pyridazinyl)-6-quinolinyl]-3 pyridinyl}benzenesulfonamide (0.1% DMSO and 0.1% BSA final concentration in the assay). After 25 minutes incubation at 37° C., 5% CO2 the plate is spun for 5 min at 1600 rpm. The supernatants are decanted and 40 μl of phosphosafe lysis buffer containing protease inhibitors is added to each well. The plate is then snap frozen in liquid nitrogen and stored at −80° C. prior to further analysis. Following thawing on ice, cell lysates are transferred onto phospho Akt, total Akt Meso Scale Discovery (MSD) capture plates and processed as described above.

[1] = test system: AKT phosphorylation (pAKT) at position Ser473; experiment: FBS stimulated AKT (S473) phosphorylation in primary human lung fibroblasts, MSD assay (Example 2); format: cell-based; details: Fibroblast, 0.5 h, 20% FBS 30 minute, read-out: mean pIC50, AKT (S473) phosphorylation (converted)
Description: Primary human fibroblasts were isolated by explant culture from non-IPF lung tissue, obtained post mortem following sudden trauma, and IPF lung tissue obtained from the lungs of IPF patients which were removed for transplantation or biopsy. Explants were cultured in DMEM containing high glucose and sodium pyruvate (PAA laboratories, catalogue #E15-011) with penicillin/streptomycin (Sigma #P4333), amphotericin B (Sigma #A2942), L-glutamine (Gibco #25030) and 20% FBS (foetal bovine serum, Lonza, catalogue #14-801F, Lot #1SB003) at 37° C., 100% humidity, 10% CO2. Cells were designated non-IPF (UCL marked 0110 and 0610) and IPF (UCL marked 0207, 0208, 0308, 0507 and 0508) based on medical diagnosis.
Human lung primary fibroblast cell lines were cultured in DMEM containing high glucose and sodium pyruvate supplemented with L-glutamine, penicillin/streptomycin and 10% FBS (complete DMEM) at 37° C., 100% humidity, 10% CO2. Cells were split into T175 flasks (NUNC #159910) 2 to 3 days prior to assay set-up at a density which yields approximately 70-80% confluence at time of harvest for assay. Cells were harvested using 0.25% trypsin-EDTA (Gibco #25300), washed and re-suspended in complete DMEM. Cell counts were performed on the cell suspension using a Handheld Automated Cell Counter (Millipore #PHCC00000) with 60 μm sensors (Millipore #PHCC60050). […]

`COc1ncc(-c2ccc3nccc(-c4ccnnc4)c3c2)cc1NS(=O)(=O)c1ccc(F)cc1F` [2,4-difluoro-N-{2-(methyloxy)-5-[4-(4-pyridazinyl)-6-quinolinyl]-3-pyridinyl}benzenesulfonamide] gave an IC50 (AKT phosphorylation) of 0.54 nM, an IC50 ([1]; IPF fibroblasts, n=5 cell lines (+/-0.1 SEM)) of 1.58 nM and an IC50 ([1]; primary human non-IPF fibroblasts, n=2 lines (range 8.8-9.4)) of 0.794 nM.
